One may read the IC50 as the point on the concentration scale where inhibition reaches its midpoint. Low readings indicate greater potency in that assay, high ones weaker potency in that assay.

Holding throughout (assay type): biochemical
The target of series [1] is T1, WT pBChE (plant-derived human butyrylcholinesterase) (Homo sapiens, UniProt P06276).
T1 construct: barley alpha-amylase signal peptide (N); made in house; host or cells: Nicotiana benthamiana (transient, MagnICON/TMV vector, Agrobacterium infiltration)
As to the kind of experiment: Inhibition of BTC hydrolysis activity of WT pBChE. As to conditions: for Fold increase in sensitivity relative to WT pBChE: WT pBChE (reference). The protocol: (§1) To this end, BTC hydrolysis was analyzed following a 30-minute incubation with the inhibitors.
(§2) The four inhibitors were purchased from Sigma (St Louis, MO).
(§3) Preparations of BChE and variants thereof were incubated in 96-well plate format with indicated concentrations of the inhibitors for 30 min at room temperature followed by activity measurements based on modified Ellman assay using 1 mM BTC as the substrate. IC50 values were determined by non-linear regression (GraphPad Prism) fit according to Equation (4).

The target of series [2] is T2, pBChEV5 (F227A/S287G/A328W/Y332G) (Homo sapiens, UniProt P06276, A356W/F255A/S315G/Y360G).
T2 construct: hexahistidine (C); barley alpha-amylase signal peptide (N); made in house; host or cells: Nicotiana benthamiana (transient, MagnICON/TMV vector)
The series is described as follows: Inhibition of BTC hydrolysis activity of pBChEV5. As to conditions: for Fold increase in sensitivity relative to WT pBChE: pBChEV5 vs WT pBChE. The protocol:
as §1, §2, §3

The target in series [3] is T3, pBChEV2 (F227A/S287G/A328W/Y332A) (Homo sapiens, UniProt P06276, A356W/F255A/S315G/Y360A).
T3 construct: hexahistidine (C); barley alpha-amylase signal peptide (N); made in house; host or cells: Nicotiana benthamiana (transient, MagnICON/TMV vector)
The series is described as follows: Inhibition of BTC hydrolysis activity of pBChEV2. As to conditions: for Fold increase in sensitivity relative to WT pBChE: pBChEV2 vs WT pBChE. The protocol: as §1, §2, §3

A further series has as its target T4, WT pBChE (Homo sapiens, UniProt P06276).
T4 construct: barley alpha-amylase signal peptide (N); made in house; host or cells: Nicotiana benthamiana (transient, MagnICON/TMV vector, Agrobacterium infiltration)
As to the kind of experiment: Inhibition rate constant for paraoxon, WT pBChE. As to conditions: enzyme WT pBChE.

For series [4], the target named is T5, pBChEV4 (A199S/F227A/S287G/A328W/Y332G) (Homo sapiens, UniProt P06276, A227S/A356W/F255A/S315G/Y360G).
T5 construct: hexahistidine (C); barley alpha-amylase signal peptide (N); made in house; host or cells: Nicotiana benthamiana (transient, MagnICON/TMV vector)
The series is described as follows: Inhibition of BTC hydrolysis activity of pBChEV4. As to conditions: for Fold increase in sensitivity relative to WT pBChE: pBChEV4 vs WT pBChE. The procedure: as §1, §2, §3

A further series concerns the target T6, pBChEV4 (Homo sapiens, UniProt P06276, A227S/A356W/F255A/S315G/Y360G).
T6 construct: hexahistidine (C); barley alpha-amylase signal peptide (N); made in house; host or cells: Nicotiana benthamiana (transient, MagnICON/TMV vector)
As to the kind of experiment: Inhibition rate constant for paraoxon, pBChEV4. The following applies: enzyme pBChEV4.

Series [5] has as its target T7, pBChEV3 (A199S/S287G/A328W/Y332G) (Homo sapiens, UniProt P06276, A227S/A356W/S315G/Y360G).
T7 construct: hexahistidine (C); barley alpha-amylase signal peptide (N); made in house; host or cells: Nicotiana benthamiana (transient, MagnICON/TMV vector)
The series is described as follows: Inhibition of BTC hydrolysis activity of pBChEV3. The following applies: for Fold increase in sensitivity relative to WT pBChE: pBChEV3 vs WT pBChE. The procedure: as §1, §2, §3

Series [6] concerns the target T8, WT hBChE (human plasma-derived butyrylcholinesterase) (Homo sapiens, UniProt P06276).
T8 construct: we first compared WT human plasma-derived (hBChE) to pBChE; from tissue; host or cells: human plasma
As to the kind of experiment: Inhibition of BTC hydrolysis activity of WT hBChE. The following applies: for Fold increase in sensitivity relative to WT pBChE: WT hBChE vs WT pBChE. The procedure:
as §1, §2, §3

A short description of series [7]: Radiometric (−)-cocaine hydrolysis assay. The following applies: substrate (−)-cocaine.

Marks after values point to notes of the source that are not given here.

T3 sequence (P06276 29-602 F255A/S315G/A356W/Y360A): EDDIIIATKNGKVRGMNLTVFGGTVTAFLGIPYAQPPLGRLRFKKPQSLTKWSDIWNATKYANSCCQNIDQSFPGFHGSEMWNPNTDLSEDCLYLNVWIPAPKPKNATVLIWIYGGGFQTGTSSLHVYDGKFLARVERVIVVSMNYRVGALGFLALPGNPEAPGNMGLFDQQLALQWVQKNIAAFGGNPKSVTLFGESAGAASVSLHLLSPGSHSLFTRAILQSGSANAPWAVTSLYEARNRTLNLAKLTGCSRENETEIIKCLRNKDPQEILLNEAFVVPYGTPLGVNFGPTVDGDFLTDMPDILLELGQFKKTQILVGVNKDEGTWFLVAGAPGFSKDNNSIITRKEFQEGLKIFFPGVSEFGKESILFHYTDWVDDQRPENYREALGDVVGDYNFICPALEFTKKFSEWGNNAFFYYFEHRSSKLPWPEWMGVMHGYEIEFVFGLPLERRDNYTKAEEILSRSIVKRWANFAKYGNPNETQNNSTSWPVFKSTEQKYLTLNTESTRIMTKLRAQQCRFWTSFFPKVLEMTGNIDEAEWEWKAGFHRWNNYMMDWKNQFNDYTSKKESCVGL
T7 sequence (P06276 29-602 A227S/S315G/A356W/Y360G): as the sequence (P06276 29-602 F255A/S315G/A356W/Y360A) above, with A199S, A227F, A332G counted along it
T5 sequence (P06276 29-602 A227S/F255A/S315G/A356W/Y360G): as the sequence (P06276 29-602 F255A/S315G/A356W/Y360A) above, with A199S, A332G counted along it
T2 sequence (P06276 29-602 F255A/S315G/A356W/Y360G): as the sequence (P06276 29-602 F255A/S315G/A356W/Y360A) above, with A332G counted along it
T6 sequence (P06276 29-602 A227S/F255A/S315G/A356W/Y360G): as the sequence (P06276 29-602 F255A/S315G/A356W/Y360A) above, with A199S, A332G counted along it

For `CCOP(=O)(OCC)Oc1ccc([N+](=O)[O-])cc1` [Paraoxon, diethyl (4-nitrophenyl) phosphate], the “Fold increase in sensitivity relative to WT pBChE” value is given as “(1) fold” in [1]; “(46)^**** fold” in series [2]; 40–50 fold in [2] (listed as paraoxon); “(38)^**** fold” in [3]; 40–50 fold in series [3] (listed as paraoxon); “(6)^**** fold” in series [4]. The “Fold increase in sensitivity relative to WT pBChE” value was 3–7 fold in series [4] (listed as paraoxon), “(3)^**** fold” in series [5], 3–7 fold in series [5] (listed as paraoxon) and “(0.9) fold” in series [6]. Also, the entries for the “inhibition rate constant (ki)” value against WT pBChE and against pBChEV4 were 52300 M⁻¹ s⁻¹ and 283000 M⁻¹ s⁻¹, respectively.

Regarding `CN(C)C(=O)Oc1cccc([N+](C)(C)C)c1` [Neostigmine, [3-(dimethylcarbamoyloxy)phenyl]-trimethylazanium;bromide], the IC50 was 229 nM in [1]; 13.2 nM in series [2]; 17.8 nM in series [3]; 155 nM in series [4]; 204 nM in series [5]; 162 nM in series [6]. The “Fold increase in sensitivity relative to WT pBChE” value is “(1) fold” in [1]; “(17)^**** fold” in series [2]; 10–20 fold in series [2] (listed as neostigmine); “(13)^**** fold” in series [3]; 10–20 fold in series [3] (listed as neostigmine); “(1)^**** fold” in series [4]. Also, the “Fold increase in sensitivity relative to WT pBChE” value in series [4] (listed as neostigmine) was “near WT levels”; in series [5], “(1) fold”; in series [5] (listed as neostigmine) it was “near WT levels”; in [6], “(1)^**** fold”.

B1: WT pBChE (protein, UniProt P06276 29-602, looked up)
Cholinesterase: EDDIIIATKNGKVRGMNLTVFGGTVTAFLGIPYAQPPLGRLRFKKPQSLTKWSDIWNATKYANSCCQNIDQSFPGFHGSEMWNPNTDLSEDCLYLNVWIPAPKPKNATVLIWIYGGGFQTGTSSLHVYDGKFLARVERVIVVSMNYRVGALGFLALPGNPEAPGNMGLFDQQLALQWVQKNIAAFGGNPKSVTLFGESAGAASVSLHLLSPGSHSLFTRAILQSGSFNAPWAVTSLYEARNRTLNLAKLTGCSRENETEIIKCLRNKDPQEILLNEAFVVPYGTPLSVNFGPTVDGDFLTDMPDILLELGQFKKTQILVGVNKDEGTAFLVYGAPGFSKDNNSIITRKEFQEGLKIFFPGVSEFGKESILFHYTDWVDDQRPENYREALGDVVGDYNFICPALEFTKKFSEWGNNAFFYYFEHRSSKLPWPEWMGVMHGYEIEFVFGLPLERRDNYTKAEEILSRSIVKRWANFAKYGNPNETQNNSTSWPVFKSTEQKYLTLNTESTRIMTKLRAQQCRFWTSFFPKVLEMTGNIDEAEWEWKAGFHRWNNYMMDWKNQFNDYTSKKESCVGL
modifications: plant-expressed
B1 returned a k cat in series [7] of 0.0433 s⁻¹.

The values are drawn from article PMC5585256 (Scientific Reports, 2017).
